One experiment deals with T1, human SirT1 (Homo sapiens, UniProt Q96EB6).
T1 construct: purchased Biomol SE-239
T1 sequence (Q96EB6 1-747): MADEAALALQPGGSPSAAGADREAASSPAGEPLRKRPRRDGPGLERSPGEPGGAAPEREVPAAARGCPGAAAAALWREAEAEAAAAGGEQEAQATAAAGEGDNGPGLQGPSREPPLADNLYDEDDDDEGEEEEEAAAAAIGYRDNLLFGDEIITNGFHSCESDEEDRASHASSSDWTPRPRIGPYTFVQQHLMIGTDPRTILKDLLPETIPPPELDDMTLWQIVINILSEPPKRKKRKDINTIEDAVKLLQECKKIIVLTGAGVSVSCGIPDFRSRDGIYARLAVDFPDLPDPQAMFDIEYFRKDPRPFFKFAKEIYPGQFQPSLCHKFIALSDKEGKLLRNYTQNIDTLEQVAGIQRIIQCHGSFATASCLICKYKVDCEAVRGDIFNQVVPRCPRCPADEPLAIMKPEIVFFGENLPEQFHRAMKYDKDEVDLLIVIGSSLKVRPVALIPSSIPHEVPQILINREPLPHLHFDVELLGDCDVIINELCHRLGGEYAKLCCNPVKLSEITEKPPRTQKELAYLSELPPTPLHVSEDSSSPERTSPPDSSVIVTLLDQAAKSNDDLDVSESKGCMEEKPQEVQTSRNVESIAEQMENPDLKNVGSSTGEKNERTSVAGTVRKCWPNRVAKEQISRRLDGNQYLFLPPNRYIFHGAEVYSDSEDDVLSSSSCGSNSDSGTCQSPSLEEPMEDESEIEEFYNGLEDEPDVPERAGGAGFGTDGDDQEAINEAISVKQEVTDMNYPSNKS
The experiment in a line: SirT1 Fluor de Lys enzymatic deacetylase assay. Type of experiment: biochemical. From the text: An exemplary assay method includes a 1536 well format of the SirT1 enzymatic assay that is based on the commercial “Fluor-de-Lys” assay principle by Biomol, which is fluorogenic (www.biomol.com/store/Product_Data_PDFs/ak500.pdf). In this assay, deacetylation of the e-amino function of a lysyl residue is coupled to a fluorogenic “development step that is dependent on the unblocked e-amino functionality and generates fluorescent aminomethylcoumarin. Fluorescence can be read on a commercial macroscopic reader.
Step Description • 1 Prepare amount of 2× Substrates necessary for the number of wells to be assayed.

A further experiment concerns the target T2, SirT2 (Homo sapiens, UniProt Q8IXJ6).
T2 sequence (Q8IXJ6 1-389): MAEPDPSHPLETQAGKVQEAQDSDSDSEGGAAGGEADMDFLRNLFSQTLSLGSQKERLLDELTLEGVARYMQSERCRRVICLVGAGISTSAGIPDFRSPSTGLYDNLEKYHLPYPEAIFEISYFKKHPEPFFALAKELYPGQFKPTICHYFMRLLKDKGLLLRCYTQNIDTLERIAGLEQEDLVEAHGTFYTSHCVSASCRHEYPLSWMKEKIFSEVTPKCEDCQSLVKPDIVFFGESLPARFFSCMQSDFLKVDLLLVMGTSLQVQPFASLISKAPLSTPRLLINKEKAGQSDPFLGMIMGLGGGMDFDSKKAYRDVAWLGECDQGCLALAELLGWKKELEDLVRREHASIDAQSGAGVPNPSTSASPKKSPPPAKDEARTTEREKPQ
Nature of the experiment: SirT2 activity (Tables 1 and 2). It counts as biochemical.

The next experiment has as its target T3, GFP-hSIRT2 isoform 1 (Homo sapiens, UniProt Q8IXJ6).
T3 construct: expressed in transfected cells; host or cells: HeLa
T3 sequence (Q8IXJ6 1-389): T2 sequence (Q8IXJ6 1-389)
Nature of the experiment: Acetylated tubulin staining in HeLa cells transfected with GFP-hSIRT2 isoform 1. It counts as cell-based. Conditions: 50 μM compound with 1 μM TSA, added 36 hours post transfection, stained next morning; versus DMSO. As to the method: HeLa cells were transfected with GFP-hSIRT2 isoform 1. At 36 hours post transfection 1 μM of TSA and either DMSO or 50 μM of Compound 8 was added. The next morning cells were fixed, permeabilized, and stained for acetylated tubulin.

The mark [1] stands for this setting: Table 1, Activity of Triazoles (conc. in μM), read-out: SirT1.
Setting [2] is: Table 1, Activity of Triazoles (conc. in μM).
Setting [3] is: Table 2, Activity of representative compounds (conc. in μM), read-out: SirT1.
Setting [4] is: Table 2, Activity of representative compounds (conc. in μM).
[5] abbreviates: Table 3, p53-382 Fluor de Lys substrate, read-out: SirT1 p53-382-FdL IC50.

Read-outs that look alike come from different tables or passages of the source.

With `NC(=O)CSc1nnc(Cc2c[nH]c3ccccc23)n1Cc1ccccc1` [Compound 1, 2-[4-Benzyl-5-(1H-indol-3-ylmethyl)-4H-[1,2,4]triazol-3-ylsulfanyl]-acetamide], the IC50 at human SirT1 (setting [1]) was 1 to 10 µM; on SirT2 (setting [2]), above 10 µM.
Consider `COc1ccc(-n2c(COc3cccc4ccccc34)nnc2SCC(N)=O)cc1` [Compound 2, 2-[4-(4-Methoxy-phenyl)-5-(naphthalen-1-yloxymethyl)-4H-[1,2,4]triazol-3-ylsulfanyl]-acetamide], for which the IC50 on human SirT1 (setting [1]) is 1 to 10 µM; at SirT2 (setting [2]), above 10 µM.
For the compound `Cc1ccc(-n2c(Cc3ccccc3)nnc2SCC(N)=O)cc1` [Compound 3, 2-(5-Benzyl-4-p-tolyl-4H-[1,2,4]triazol-3-ylsulfanyl)-acetamide], the IC50 on human SirT1 (setting [1]) is 1 to 10 µM; on SirT2 (setting [2]), above 10 µM.
Taken in the same sequence, the figures for `Cc1ccc(-n2c(SCC(N)=O)nnc2-c2ccccc2Br)cc1` [Compound 4, 2-[5-(2-Bromo-phenyl)-4-p-tolyl-4H-[1,2,4]triazol-3-ylsulfanyl]-acetamide] were above 10 µM and 1 to 10 µM.
Consider `O=C(O)CSc1nc2sc3c(c2c(=O)n1C1CCCCC1)CCC3` [Compound 5, (5-Cyclohexyl-4-oxo-2,3,4,5-tetrahydro-1H-8-thia-5,7-diaza-cyclopenta[a]inden-6-ylsulfanyl)-acetic acid], for which the IC50 at human SirT1 (setting [3]) was 1 to 10 µM; on SirT2 (setting [4]) it was above 10 µM.
Taken in the same sequence, the figures for `NC(=O)Cn1c(=O)oc2cc(Br)ccc21` [Compound 6, 2-(6-Bromo-2-oxo-benzooxazol-3-yl)-acetamide] were 1 to 10 µM and above 10 µM.
Taken in the same sequence, the figures for `Nn1c(CCC(=O)O)nc2sc3c(c2c1=O)CCCC3` [Compound 7, 3-(3-Amino-4-oxo-3,4,5,6,7,8-hexahydro-benzo[4,5]thieno[2,3-d]pyrimidin-2-yl)-propionic acid] were above 10 µM and above 10 µM.
On to `NC(=O)COC(=O)c1sc2ccccc2c1Cl` [Compound 8, 3-Chloro-benzo[b]thiophene-2-carboxylic acid carbamoylmethyl ester], for which, at GFP-hSIRT2 isoform 1, the “acetylation of tubulin in cells expressing SIRT2” value is “more highly acetylated”.
With `Cc1sc(NC(=O)Cn2nc([N+](=O)[O-])cc2C)c(C(N)=O)c1C` [Compound 9, 4,5-Dimethyl-2-[2-(5-methyl-3-nitro-pyrazol-1-yl)-acetylamino]-thiophene-3-carboxylic acid amide], on human SirT1 (setting [5]), the IC50 is above 10 µM.
Same read-out and setting: in the case of `Cc1sc(NC(=O)c2ccc(Br)o2)c(C(N)=O)c1C` [Compound 11, 5-Bromo-furan-2-carboxylic acid (3-carbamoyl-4,5-dimethyl-thiophen-2-yl)-amide] it was above 10 µM; in that of `Cc1sc(NC(=O)C2CCCO2)c(C(N)=O)c1C` (stereo not shown) [Compound 15, Tetrahydro-furan-2-carboxylic acid (3-carbamoyl-4,5-dimethyl-thiophen-2-yl)-amide], above 10 µM; in that of `Cc1sc(NC(=O)C2CC2)c(C(N)=O)c1C` [Compound 26, 2-(Cyclopropanecarbonyl-amino)-4,5-dimethyl-thiophene-3-carboxylic acid amide], above 10 µM.
On the same count and under the same terms, next, `Cc1sc(NC(=O)c2ccncc2)c(C(N)=O)c1C` [Compound 29, N-(3-Carbamoyl-4,5-dimethyl-thiophen-2-yl)-isonicotinamide]: above 10 µM; `Cc1sc(NC(=O)c2cnccn2)c(C(N)=O)c1C` [Compound 30, Pyrazine-2-carboxylic acid (3-carbamoyl-4,5-dimethyl-thiophen-2-yl)-amide]: above 10 µM; `CC1CCc2c(sc(NC(=O)C3CCCC3)c2C(N)=O)C1` (stereo not shown) [Compound 32, 2-(Cyclopentanecarbonyl-amino)-6-methyl-4,5,6,7-tetrahydro-benzo[b]thiophene-3-carboxylic acid amide]: below 1 µM.
The same measure, in the same setting: in the case of `CC(C)CC(=O)Nc1sc2c(c1C(N)=O)CCCCCC2` [Compound 33, 2-(3-Methyl-butyrylamino)-4,5,6,7,8,9-hexahydro-cycloocta[b]thiophene-3-carboxylic acid amide] it was above 10 µM.
As for `NC(=O)c1c(NC(=O)C2CC2)sc2c1CCCCC2` [Compound 34, 2-(Cyclopropanecarbonyl-amino)-5,6,7,8-tetrahydro-4H-cyclohepta[b]thiophene-3-carboxylic acid amide], the IC50 on human SirT1 (setting [5]) was above 10 µM.
On the same count and under the same terms, in the case of `CCC(=O)Nc1sc2c(c1C(N)=O)CCC(C)C2` (stereo not shown) [Compound 35, 6-Methyl-2-propionylamino-4,5,6,7-tetrahydro-benzo[b]thiophene-3-carboxylic acid amide] it was 1 to 10 µM; in that of `CC1CCc2c(sc(N)c2C(N)=O)C1` (stereo not shown) [Compound 36, 2-Amino-6-methyl-4,5,6,7-tetrahydro-benzo[b]thiophene-3-carboxylic acid amide], above 10 µM.
On the same count and under the same terms, in the case of `CCC1CCc2c(sc(N)c2C(N)=O)C1` (stereo not shown) [Compound 38, 2-Amino-6-ethyl-4,5,6,7-tetrahydro-benzo[b]thiophene-3-carboxylic acid amide] it was above 10 µM; in that of `CSc1c(CC(=O)NCCO)n(C)c2ccc(C)cc12` [Compound 48, 2-(1,5-Dimethyl-3-methylsulfanyl-1H-indol-2-yl)-N-(2-hydroxy-ethyl)-acetamide], above 10 µM.

These data come from patent publication US20050250794A1, “Methods of treating a disorder” (priority 2003, published 2005).
